Each block holds one compound with its values, some of them ahead of it. The source made the active and inactive calls. The rule behind the calls is not given here.
Experiments:
MOLT-4 = assay: cells; details: Homo sapiens, MOLT-4, 72 h
Description: Antiproliferative activity against human MOLT-4 cells assessed as inhibition of cell growth incubated for 72 hrs by CCK8 assay

MV4-11 [1] = assay: Antitumor activity against human MV4-11 cells xenografted NOD/SCID mouse assessed as increase in tumor necrotic cells at 20 mg/kg, ip administered once daily for 21 days by H and E staining analysis; assay type: functional, organism-based; details: time 21.0 day
K562 = assay: cells; details: Homo sapiens, K562, 72 h
Description: Antiproliferative activity against human K562 cells assessed as inhibition of cell growth incubated for 72 hrs by CCK8 assay

JeKo-1 [2] = assay: cells; details: Homo sapiens, JeKo-1, 72 h
Description: Antiproliferative activity against human JeKo-1 cells assessed as inhibition of cell growth incubated for 72 hrs by CCK8 assay

MV4-11 [3] = assay: cells; details: Homo sapiens, MV4-11, 72 h
JeKo-1 [4] = assay: Induction of apoptosis in human JeKo-1 cells assessed as early apoptotic cells at 750 nM incubated for 72 hrs by Annexin VFITC/PI staining based flow cytometry analysis (reference value: 3.10%); assay type: functional
JeKo-1 [5] = assay: Induction of apoptosis in human JeKo-1 cells assessed as late apoptotic cells at 750 nM incubated for 72 hrs by Annexin VFITC/PI staining based flow cytometry analysis (reference value: 1.42%); assay type: functional
JeKo-1 [6] = assay: Induction of apoptosis in human JeKo-1 cells assessed as viable cells at 750 nM incubated for 72 hrs by Annexin VFITC/PI staining based flow cytometry analysis (reference value: 94.81%); assay type: functional
JeKo-1 [7] = assay: Induction of apoptosis in human JeKo-1 cells assessed as necrotic cells at 750 nM incubated for 72 hrs by Annexin VFITC/PI staining based flow cytometry analysis (reference value: 0.67%); assay type: functional
[8] = target: Tyrosine-protein kinase BTK (Homo sapiens, UniProt Q06187); assay: Inhibition of BTK (unknown origin) incubated for 40 mins by radiometric kinase assay
Sequence of Tyrosine-protein kinase BTK (Q06187 whole entry): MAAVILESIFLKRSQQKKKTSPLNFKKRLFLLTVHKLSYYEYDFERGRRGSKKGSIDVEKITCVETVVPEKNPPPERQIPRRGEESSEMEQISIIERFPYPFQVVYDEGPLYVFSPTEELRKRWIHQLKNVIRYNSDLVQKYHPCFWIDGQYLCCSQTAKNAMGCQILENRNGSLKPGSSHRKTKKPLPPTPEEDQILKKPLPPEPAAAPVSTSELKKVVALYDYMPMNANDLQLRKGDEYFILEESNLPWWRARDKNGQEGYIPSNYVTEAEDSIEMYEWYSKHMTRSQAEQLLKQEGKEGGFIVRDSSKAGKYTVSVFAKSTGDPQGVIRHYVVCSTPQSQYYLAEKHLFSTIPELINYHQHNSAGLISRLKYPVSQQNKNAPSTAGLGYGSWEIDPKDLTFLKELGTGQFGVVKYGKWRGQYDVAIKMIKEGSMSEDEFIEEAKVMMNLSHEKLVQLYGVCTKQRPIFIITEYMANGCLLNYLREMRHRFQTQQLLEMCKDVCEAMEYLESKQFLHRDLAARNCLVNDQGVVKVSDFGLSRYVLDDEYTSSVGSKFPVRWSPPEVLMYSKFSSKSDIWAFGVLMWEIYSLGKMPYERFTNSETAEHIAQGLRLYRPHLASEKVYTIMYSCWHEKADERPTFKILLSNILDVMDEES

[9] = Metabolic stability in human liver microsome assessed as half life preincubated with compound for 5 mins followed by NADPH addition and measured upto 60 mins by LC-MS/MS analysis; assay type: ADME; details: liver microsomes, time < 65 min
[10] = Metabolic stability in human liver microsome assessed as intrinsic clearance preincubated with compound for 5 mins followed by NADPH addition and measured upto 60 mins by LC-MS/MS analysis; assay type: ADME; details: liver microsomes, time < 65 min, read-out: CLH
P-glycoprotein = assay: in vitro; details: human, Caco-2
Description: Efflux ratio of apparent permeability across basolateral to apical side over apical to basolateral side in human Caco-2 cells incubated for 120 mins in presence of P-glycoprotein by LC-MS/MS analysis

in vitro [11] = details: human, Caco-2
Description: Apparent permeability across basolateral to apical side in human Caco-2 cells incubated for 120 mins by LC-MS/MS analysis

in vitro [12] = details: human, Caco-2; remark: listed apart in the source
Description: Apparent permeability across apical to basolateral side in human Caco-2 cells incubated for 120 mins by LC-MS/MS analysis

JeKo-1 [13] = assay: Antitumor activity against human JeKo-1 cells xenografted NOD/SCID mouse assessed as reduction in tumor weight at 50 mg/kg, ip measured for 16 days; assay type: functional; details: time 16 day
JeKo-1 [14] = assay: Antitumor activity against human JeKo-1 cells xenografted NOD/SCID mouse assessed as tumor growth inhibition at 50 mg/kg, ip measured for 16 days; assay type: functional; details: JeKo-1, 384 h, time 16 day, read-out: TGI

Structure (SMILES): NNC(=O)c1cccc(Nc2nc(Nc3ccc(N4CCOCC4)cc3)ncc2F)c1
- IC50 (JeKo-1 [2]): 0.801 µM

Structure (SMILES): C=CC(=O)N1CCC[C@@H](n2nc(-c3ccc(Oc4ccccc4)cc3)c3c(N)ncnc32)C1 [IBRUTINIB]
- IC50 (MV4-11 [3]): 0.423 µM
- Activity (JeKo-1 [4]): 14.42%
- Activity (JeKo-1 [5]): 0.32%
- IC50 (MOLT-4): 3.52 µM
- IC50 (K562): 5.57 µM
- Activity (JeKo-1 [6]): 85.08%
- Activity (JeKo-1 [7]): 0.18%
- IC50 (JeKo-1 [2]): 1.68 µM

Structure (SMILES): O=C(O)Cc1ccccc1Nc1c(Cl)cccc1Cl [DICLOFENAC]
- half-life [9]: 5.44 min
- CLint scaled [10]: 230 mL/min/kg

Structure (SMILES): NNC(=O)c1ccccc1Nc1nc(Nc2ccc(N3CCCCC3)cc2)ncc1F
- IC50 (JeKo-1 [2]): 1.88 µM

Structure (SMILES): C[C@H]1O[C@@H](O[C@H]2[C@@H](O)C[C@H](O[C@H]3[C@@H](O)C[C@H](O[C@H]4CC[C@@]5(C)[C@H](CC[C@@H]6[C@@H]5C[C@@H](O)[C@]5(C)[C@@H](C7=CC(=O)OC7)CC[C@]65O)C4)O[C@@H]3C)O[C@@H]2C)C[C@H](O)[C@@H]1O [DIGOXIN]
- efflux ratio at 2 h (P-glycoprotein): 44.1
- Papp B→A at 2 h (in vitro [11]): 11.2 ×10⁻⁶ cm/s
- Papp A→B at 2 h (in vitro [12]): 0.25 ×10⁻⁶ cm/s

Structure (SMILES): CCN1CCN(c2ccc(Nc3ncc(F)c(Nc4cccc(C(=O)NN)c4)n3)cc2)CC1
- IC50 (JeKo-1 [2]): 0.54 µM

Structure (SMILES): CN1CCN(c2ccc(Nc3ncc(F)c(Nc4cccc(C(=O)NN)c4)n3)cc2F)CC1
- IC50 (JeKo-1 [2]): 0.222 µM

Structure (SMILES): NNC(=O)c1cccc(Nc2nc(Nc3ccc(N4CCCCC4)cc3)ncc2F)c1
- IC50 (JeKo-1 [2]): 1.24 µM

Structure (SMILES): CN1CCN(c2ccc(Nc3ncc(F)c(Nc4cccc(C(=O)NN)c4)n3)cc2)CC1
- IC50 (JeKo-1 [2]): 0.562 µM

Structure (SMILES): C=CC(=O)Nc1cccc(Nc2nc(Nc3ccc(OCCOC)cc3)ncc2F)c1 [SPEBRUTINIB]
- IC50 (MV4-11 [3]): 0.245 µM
- Activity (JeKo-1 [13]): 0.69 g
- IC50 (MOLT-4): 1.46 µM
- IC50 (K562): 7.4 µM
- IC50 (JeKo-1 [2]): 1.48 µM
- inhibition in vivo at 50 mg/kg (JeKo-1 [14]): 38.1%

Structure (SMILES): CN1CCN(c2ccc(Nc3ncc(F)c(Nc4ccc(C(=O)NN)cc4)n3)cc2)CC1
- IC50 (JeKo-1 [2]): 1.41 µM

Second part, led by results:

- IC50 (MOLT-4): 2.5 µM
- IC50 (K562): 7.74 µM
- IC50 (JeKo-1 [2]): 1.07 µM
Structure (SMILES): CNC(=O)c1cc(Oc2ccc(NC(=O)Nc3ccc(Cl)c(C(F)(F)F)c3)cc2)ccn1 [SORAFENIB]
- Activity (MV4-11 [1]): Active

- IC50 (JeKo-1 [2]): 1.09 µM
Structure (SMILES): CN1CCN(c2ccc(Nc3ncc(F)c(Nc4ccc(C(=O)NN)cc4)n3)cc2F)CC1

- IC50 (MV4-11 [3]): 0.041 µM
- IC50 (MOLT-4): 0.239 µM
- IC50 (K562): > 25 µM
- IC50 [8]: 0.105 µM
- IC50 (JeKo-1 [2]): 0.088 µM
Structure (SMILES): NNC(=O)c1ccccc1Nc1nc(Nc2ccc(N3CCOCC3)cc2)ncc1F

- IC50 (JeKo-1 [2]): > 2 µM
Structure (SMILES): COc1cc(N2CCN(C)CC2)ccc1Nc1ncc(F)c(Nc2ccccc2C(=O)NN)n1

- IC50 (JeKo-1 [2]): > 2 µM
Structure (SMILES): NNC(=O)c1ccc(Nc2nc(Nc3ccc(N4CCOCC4)cc3)ncc2F)cc1

- IC50 (JeKo-1 [2]): > 2 µM
Structure (SMILES): NNC(=O)c1ccc(Nc2nc(Nc3ccc(N4CCCCC4)cc3)ncc2F)cc1

- IC50 (JeKo-1 [2]): 1.75 µM
Structure (SMILES): CCN1CCN(c2ccc(Nc3ncc(F)c(Nc4ccc(C(=O)NN)cc4)n3)cc2)CC1

- efflux ratio at 2 h (P-glycoprotein): 0.62
- Papp B→A at 2 h (in vitro [11]): 20.1 ×10⁻⁶ cm/s
- Papp A→B at 2 h (in vitro [12]): 32.4 ×10⁻⁶ cm/s
Structure (SMILES): CC(C)NCC(O)COc1cccc2ccccc12 (stereo unspecified) [PROPRANOLOL]

- IC50 (JeKo-1 [2]): > 2 µM
Structure (SMILES): COc1cc(N2CCN(C)CC2)ccc1Nc1ncc(F)c(Nc2ccc(C(=O)NN)cc2)n1

- IC50 (JeKo-1 [2]): 1.28 µM
Structure (SMILES): CCN1CCN(c2ccc(Nc3ncc(F)c(Nc4ccccc4C(=O)NN)n3)cc2)CC1

- IC50 (JeKo-1 [2]): > 2 µM
Structure (SMILES): COc1cc(N2CCN(C)CC2)ccc1Nc1ncc(F)c(Nc2cccc(C(=O)NN)c2)n1

- IC50 (MV4-11 [3]): 0.031 µM
- IC50 (MOLT-4): 0.065 µM
- IC50 (K562): 0.69 µM
- IC50 [8]: 0.084 µM
- IC50 (JeKo-1 [2]): 0.052 µM
Structure (SMILES): CN1CCN(c2ccc(Nc3ncc(F)c(Nc4ccccc4C(=O)NN)n3)cc2F)CC1

Reference: ChEMBL document CHEMBL5385861, “Development of novel hydrazidoarylaminopyrimidine-based BTK/FLT3 dual inhibitors with potent in vivo anti-hematological malignancies effects” (Eur J Med Chem, 2023)
